Measurements taken from US10112941B2, “Tricyclic compounds as anticancer agents” (BRISTOL-MYERS SQUIBB COMPANY, priority 2013, dated 2018).
pIC50: −log10 of the molar value.

The compounds below were run against BRD4 (Homo sapiens, UniProt O60885) (assay: Time Resolved Fluorescence Resonance Energy Transfer (TR-FRET) binding assay, BRD4). Conditions: FRET BRD4 IC50 (nM), one of the FRET assays described.

| Compound | IC50 |
| --- | --- |
| [2H]C([2H])([2H])c1onc(C)c1-c1cnc2c3ccc(C(C)(C)O)cc3n([C@H](c3ccc(F)cc3)C3CCOCC3)c2c1 [Example 284, 2-{5-[(S)-(4-Fluorophenyl)(oxan-4-yl)methyl]-3-[5-(^2H3)methyl-3-methyl-1,2-oxazol-4-yl]-5H-pyrido[3,2-b]indol-7-yl}propan-2-ol] | < 5 nM |

Same assay, conditions: one of the FRET assays described; read-out: FRET BRD4 IC50

| Compound | pIC50 |
| --- | --- |
| Cc1nnn(C)c1-c1cnc2c3cc(CC(C)(C)O)ccc3n([C@H](c3ccccc3)C3CCOCC3)c2c1 [Example 255, 1-[3-(Dimethyl-1H-1,2,3-triazol-5-yl)-5-[(S)-oxan-4-yl(phenyl)methyl]-5H-pyrido[3,2-b]indol-8-yl]-2-methylpropan-2-ol] | > 8.30 |
| Cc1nnn(C)c1-c1cnc2c3ccc(CC(C)(C)O)cc3n([C@H](c3ccc(F)cc3)C3CCOCC3)c2c1 [Example 256, 1-[3-(Dimethyl-1H-1,2,3-triazol-5-yl)-5-[(S)-(4-fluorophenyl)(oxan-4-yl)methyl]-5H-pyrido[3,2-b]indol-7-yl]-2-methylpropan-2-ol] | > 8.30 |
| Cc1nnn(C)c1-c1cnc2c3c(S(C)(=O)=O)cccc3n([C@H](c3ccc(F)cc3)C3CCOCC3)c2c1 [Example 257, 5-{5-[(S)-(4-Fluorophenyl)(oxan-4-yl)methyl]-9-methanesulfonyl-5H-pyrido[3,2-b]indol-3-yl}-1,4-dimethyl-1H-1,2,3-triazole] | > 8.30 |
| Cc1nnn(C)c1-c1cnc2c3c(S(C)(=O)=O)cccc3n([C@H](c3ccccc3)C3CCOCC3)c2c1 [Example 259, 5-{9-Methanesulfonyl-5-[(S)-oxan-4-yl(phenyl)methyl]-5H-pyrido[3,2-b]indol-3-yl}-1,4-dimethyl-1H-1,2,3-triazole] | > 8.30 |
| COc1cc(C(C)(C)O)cc2c1c1ncc(-c3c(C)nnn3C)cc1n2[C@H](c1ccccc1)C1CCOCC1 [Example 260, 2-[3-(Dimethyl-1H-1,2,3-triazol-5-yl)-9-methoxy-5-[(S)-oxan-4-yl(phenyl)methyl]-5H-pyrido[3,2-b]indol-7-yl]propan-2-ol] | > 8.30 |
| Cc1nnn(C)c1-c1cnc2c3ccc(CC(C)(C)O)cc3n([C@H](c3ccccc3)C3CCOCC3)c2c1 [Example 261, 1-[3-(Dimethyl-1H-1,2,3-triazol-5-yl)-5-[(S)-oxan-4-yl(phenyl)methyl]-5H-pyrido[3,2-b]indol-7-yl]-2-methylpropan-2-ol] | > 8.30 |
| [2H]C([2H])([2H])c1nnn(C)c1-c1cnc2c3ccc(C(C)(C)O)cc3n([C@H](c3ccccc3)C3CCOCC3)c2c1 [Example 262, 2-{3-[4-(^2H3)Methyl-1-methyl-1H-1,2,3-triazol-5-yl]-5-[(S)-oxan-4-yl(phenyl)methyl]-5H-pyrido[3,2-b]indol-7-yl}propan-2-ol] | > 8.30 |
| Cc1nnn(C)c1-c1cnc2c3ccc(S(C)(=O)=O)cc3n([C@H](c3ccccc3F)C3CCOCC3)c2c1 [Example 264] | > 8.30 |
| [2H]C([2H])([2H])c1nnn(C)c1-c1cnc2c3c(S(C)(=O)=O)cccc3n([C@H](c3ccccc3)C3CCOCC3)c2c1 [Example 268, 5-{9-Methanesulfonyl-5-[(S)-oxan-4-yl(phenyl)methyl]-5H-pyrido[3,2-b]indol-3-yl}-4-(^2H3)methyl-1-methyl-1H-1,2,3-triazole] | > 8.30 |
| Cc1nnn(C)c1-c1cnc2c3c(S(C)(=O)=O)cccc3n([C@H](c3ccccc3F)C3CCOCC3)c2c1 [Example 269] | > 8.30 |
| [2H]C([2H])([2H])c1nnn(C)c1-c1cnc2c3ccc(C(C)(C)O)c(F)c3n([C@H](c3ccc(F)cc3)C3CCOCC3)c2c1 [Example 271, 2-{6-Fluoro-5-[(S)-(4-fluorophenyl)(oxan-4-yl)methyl]-3-[4-(^2H3)methyl-1-methyl-1H-1,2,3-triazol-5-yl]-5H-pyrido[3,2-b]indol-7-yl}propan-2-ol] | > 8.30 |
| [2H]C([2H])([2H])c1nnn(C)c1-c1cnc2c3ccc(C(C)(C)O)c(F)c3n([C@H](c3ccccc3F)C3CCOCC3)c2c1 [Example 272, 2-{6-Fluoro-5-[(S)-(2-fluorophenyl)(oxan-4-yl)methyl]-3-[4-(^2H3)methyl-1-methyl-1H-1,2,3-triazol-5-yl]-5H-pyrido[3,2-b]indol-7-yl}propan-2-ol] | > 8.30 |
| [2H]C([2H])([2H])c1nnn(C)c1-c1cnc2c3c(OC)cc(C(C)(C)O)cc3n([C@H](c3ccccc3)C3CCOCC3)c2c1 [Example 273, 2-{9-Methoxy-3-[4-(^2H3)methyl-1-methyl-1H-1,2,3-triazol-5-yl]-5-[(S)-oxan-4-yl(phenyl)methyl]-5H-pyrido[3,2-b]indol-7-yl}propan-2-ol] | > 8.30 |
| COc1cc(C(C)(C)O)cc2c1c1ncc(-c3c(C)nnn3C)cc1n2[C@H](c1ccccc1F)C1CCOCC1 [Example 274] | > 8.30 |
| [2H]C([2H])([2H])c1nnn(C)c1-c1cnc2c3cc(F)c(C(C)(C)O)cc3n([C@H](c3ccc(F)cc3)C3CCOCC3)c2c1 [Example 277, 2-{8-Fluoro-5-[(S)-(4-fluorophenyl)(oxan-4-yl)methyl]-3-[4-(^2H3)methyl-1-methyl-1H-1,2,3-triazol-5-yl]-5H-pyrido[3,2-b]indol-7-yl}propan-2-ol] | > 8.30 |
| [2H]C([2H])([2H])c1nnn(C)c1-c1cnc2c3ccc(C(C)(C)O)cc3n(C(c3ccc(F)cc3F)C3CCOCC3)c2c1 (stereo not shown) [Example 280, 2-{5-[(2,4-Difluorophenyl)(oxan-4-yl)methyl]-3-[4-(^2H3)methyl-1-methyl-1H-1,2,3-triazol-5-yl]-5H-pyrido[3,2-b]indol-7-yl}propan-2-ol] | > 8.30 |
| [2H]C([2H])([2H])c1nnn(C)c1-c1cnc2c3ccc(C(C)(C)O)cc3n(C(c3ccc(F)cc3F)C3CCOCC3)c2c1 (stereo not shown) [Example 281, 2-{5-[(2,4-Difluorophenyl)(oxan-4-yl)methyl]-3-[4-(^2H3)methyl-1-methyl-1H-1,2,3-triazol-5-yl]-5H-pyrido[3,2-b]indol-7-yl}propan-2-ol] | > 8.30 |
| [2H]C([2H])([2H])c1nnn(C)c1-c1cnc2c3ccc(C(C)(C)O)c(F)c3n(C(c3ccc(F)cc3F)C3CCOCC3)c2c1 (stereo not shown) [Example 282, 2-{5-[(2,4-Difluorophenyl)(oxan-4-yl)methyl]-6-fluoro-3-[4-(^2H3)methyl-1-methyl-1H-1,2,3-triazol-5-yl]-5H-pyrido[3,2-b]indol-7-yl}propan-2-ol] | > 8.30 |
| [2H]C([2H])([2H])c1nnn(C)c1-c1cnc2c3ccc(C(C)(C)O)c(F)c3n(C(c3ccc(F)cc3F)C3CCOCC3)c2c1 (stereo not shown) [Example 283, 2-{5-[(2,4-Difluorophenyl)(oxan-4-yl)methyl]-6-fluoro-3-[4-(^2H3)methyl-1-methyl-1H-1,2,3-triazol-5-yl]-5H-pyrido[3,2-b]indol-7-yl}propan-2-ol] | > 8.30 |
| [2H]C([2H])([2H])c1onc(C)c1-c1cnc2c3ccc(C(C)(C)O)cc3n([C@H](c3ccccc3F)C3CCOCC3)c2c1 [Example 285, 2-{5-[(S)-(2-Fluorophenyl)(oxan-4-yl)methyl]-3-[5-(^2H3)methyl-3-methyl-1,2-oxazol-4-yl]-5H-pyrido[3,2-b]indol-7-yl}propan-2-ol] | > 8.30 |
| COc1cnccc1C(C1CCOCC1)n1c2cc(C(C)(C)O)ccc2c2ncc(-c3c(C)nnn3C)cc21 (stereo not shown) [Example 291] | > 8.30 |
